Calls of active or inactive are those of the source. The rule behind the calls is not given here.
Assays:
Microglia = test: Antiinflammatory activity against LPS induced neonatal rat cerebral cortex microglia by immunofluorescence assay; assay type: functional, cell-based
Mus musculus [1] = test: (§1) Anti-inflammatory activity in complete Freund's adjuvant/MOG (35 to 55 residues)/pertussis toxin-induced experimental autoimmune encephalomyelitis C57BL/6 mouse model assessed as reduction in clinical scores at 30 mg/kg, ip bid administered 6 days post immunization and measured every 3 days for 28 days post immunization; assay type: functional, organism-based; conditions: time 22.0 day
Mus musculus [2] = test: as §1, with “change” for “reduction”, “cumulative” for “clinical”; assay type: functional, organism-based; conditions: time 22.0 day
Mus musculus [3] = test: as §1, with “TNF-alpha level” for “clinical scores”; assay type: functional, organism-based; conditions: time 22.0 day
Mus musculus [4] = test: as §1, with “IL-6 level” for “clinical scores”; assay type: functional, organism-based; conditions: time 22.0 day
Mus musculus [5] = test: (§2) Anti-inflammatory activity in complete Freund's adjuvant/MOG (35 to 55 residues)/pertussis toxin-induced experimental autoimmune encephalomyelitis C57BL/6 mouse model assessed as appearance of normal myelin structure at 30 mg/kg, ip bid administered 6 days post immunization and measured every 3 days for 28 days post immunization by Luxol fast blue staining based bright field fluorescence microscopic analysis; assay type: functional, organism-based; conditions: time 22.0 day
Mus musculus [6] = test: as §2, with “as” for “as appearance of normal”, “density” for “structure”, “60” for “30”; assay type: functional, organism-based; conditions: time 22.0 day
[7] = target: T1, Bromodomain-containing protein 4 (Homo sapiens, UniProt O60885); test: Binding affinity to BRD4 BD1 (unknown origin) expressed in Escherichia coli BL21 (DE3) at 1:1 protein:compound ratio by MST assay
[8] = target: T1, Bromodomain-containing protein 4; test: Binding affinity to BRD4 BD2 (unknown origin) expressed in Escherichia coli BL21 (DE3) at 1:1 protein:compound ratio by MST assay
[9] = Selectivity ratio of Kd for binding affinity to BRD4 BD2 (unknown origin) by MST assay to Kd for binding affinity to BRD4 BD1 (unknown origin) by MST assay

| Kd [7] [µM] | Kd [8] [µM] | Selectivity ratio [9] | SMILES | Activity (Microglia) | Activity (Mus musculus [1]) | Activity (Mus musculus [2]) | Activity (Mus musculus [3]) | Activity (Mus musculus [4]) | Activity (Mus musculus [5]) | Activity (Mus musculus [6]) |
| --- | --- | --- | --- | --- | --- | --- | --- | --- | --- | --- |
|  |  |  | COC(=O)/C=C/C(=O)OC | Active | Active | Active | Active | Active | Active | Active |
| 0.33 | 11 | 35 | Cn1cc(-c2cncc(-c3ccnc4nc[nH]c34)c2)c(C(F)(F)F)n1 |  |  |  |  |  |  |  |
| 0.66 | 28 | 42 | Cc1nn(C)cc1-c1cncc(-c2ccnc3nc[nH]c23)c1 |  |  |  |  |  |  |  |

Source: ChEMBL document CHEMBL5528022, “Discovery of a brain-permeable bromodomain and extra terminal domain (BET) inhibitor with selectivity for BD1 for the treatment of multiple sclerosis” (Eur J Med Chem, 2024)
